pIC50: −log10 of the molar value.
Target: hNav1.7 (Homo sapiens (Human), UniProt Q15858)
Experiment: Tritiated sulfonamide competitive binding to membranes from cells expressing hNav1.7 and the β1 subunit;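 further: displacement of the tritiated ligand from recombinant cell membranes, read by liquid scintillation counting of filter-bound radioactivity, nonspecific binding defined with 1 µM unlabelled compound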
Conditions: 100 pM [3H]compound, 18 h, room temperature; inactivated state of NaV1.7 membrane binding; read-out: NaV1.7 Ligand Binding Assay (IC50)

Chain of hNav1.7 (Q15858 other isoform, or with tags, fused parts or gaps): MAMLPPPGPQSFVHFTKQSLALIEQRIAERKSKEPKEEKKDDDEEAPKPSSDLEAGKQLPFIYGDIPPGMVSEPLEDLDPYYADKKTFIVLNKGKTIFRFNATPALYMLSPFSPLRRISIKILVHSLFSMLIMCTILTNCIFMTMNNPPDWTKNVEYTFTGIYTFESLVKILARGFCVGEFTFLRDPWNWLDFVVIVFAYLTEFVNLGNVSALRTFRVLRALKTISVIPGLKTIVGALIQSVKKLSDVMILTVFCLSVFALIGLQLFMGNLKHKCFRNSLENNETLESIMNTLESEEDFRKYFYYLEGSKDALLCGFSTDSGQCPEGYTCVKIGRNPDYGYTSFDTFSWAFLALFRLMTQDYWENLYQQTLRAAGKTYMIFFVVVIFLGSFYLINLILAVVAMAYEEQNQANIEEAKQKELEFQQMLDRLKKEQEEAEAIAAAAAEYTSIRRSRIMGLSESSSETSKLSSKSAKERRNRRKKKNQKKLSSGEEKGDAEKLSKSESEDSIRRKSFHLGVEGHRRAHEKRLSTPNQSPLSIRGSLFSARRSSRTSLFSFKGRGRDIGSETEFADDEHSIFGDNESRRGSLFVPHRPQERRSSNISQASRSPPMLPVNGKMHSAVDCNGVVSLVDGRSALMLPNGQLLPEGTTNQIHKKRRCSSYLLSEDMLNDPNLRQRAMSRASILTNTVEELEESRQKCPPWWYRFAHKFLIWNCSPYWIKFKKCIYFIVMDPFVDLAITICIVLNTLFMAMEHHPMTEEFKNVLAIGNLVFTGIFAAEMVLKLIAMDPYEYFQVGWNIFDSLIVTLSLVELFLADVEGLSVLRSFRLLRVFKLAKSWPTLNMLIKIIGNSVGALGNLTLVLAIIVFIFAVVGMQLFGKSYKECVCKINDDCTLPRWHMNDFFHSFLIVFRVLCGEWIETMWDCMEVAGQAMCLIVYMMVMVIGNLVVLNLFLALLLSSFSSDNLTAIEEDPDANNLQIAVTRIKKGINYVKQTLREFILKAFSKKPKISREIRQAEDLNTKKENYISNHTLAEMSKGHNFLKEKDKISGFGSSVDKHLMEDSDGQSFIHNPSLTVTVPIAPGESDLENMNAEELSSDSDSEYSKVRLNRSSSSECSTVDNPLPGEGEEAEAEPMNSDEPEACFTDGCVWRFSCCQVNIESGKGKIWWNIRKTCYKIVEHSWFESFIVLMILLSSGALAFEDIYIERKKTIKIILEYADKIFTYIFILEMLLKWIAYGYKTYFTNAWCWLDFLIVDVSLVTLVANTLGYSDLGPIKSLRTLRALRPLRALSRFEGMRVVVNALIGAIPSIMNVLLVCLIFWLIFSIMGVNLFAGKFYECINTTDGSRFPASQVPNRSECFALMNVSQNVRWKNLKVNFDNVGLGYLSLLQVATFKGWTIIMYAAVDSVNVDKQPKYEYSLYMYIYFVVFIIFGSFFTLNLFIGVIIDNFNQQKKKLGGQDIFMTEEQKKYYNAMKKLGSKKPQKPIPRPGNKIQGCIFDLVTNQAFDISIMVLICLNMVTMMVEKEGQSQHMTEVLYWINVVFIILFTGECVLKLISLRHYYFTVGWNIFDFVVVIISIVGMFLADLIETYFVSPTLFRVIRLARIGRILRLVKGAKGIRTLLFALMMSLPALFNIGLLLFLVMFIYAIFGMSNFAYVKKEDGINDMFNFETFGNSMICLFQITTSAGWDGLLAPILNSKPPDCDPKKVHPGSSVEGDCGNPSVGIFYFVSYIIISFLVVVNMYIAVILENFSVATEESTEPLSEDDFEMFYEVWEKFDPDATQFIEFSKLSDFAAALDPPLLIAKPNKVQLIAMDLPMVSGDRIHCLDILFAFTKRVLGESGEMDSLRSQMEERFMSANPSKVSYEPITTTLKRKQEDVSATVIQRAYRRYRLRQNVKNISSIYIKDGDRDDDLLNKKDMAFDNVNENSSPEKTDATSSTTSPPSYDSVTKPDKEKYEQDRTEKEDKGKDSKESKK
Chain of hNav1.7 (Q07699 19-218 partner): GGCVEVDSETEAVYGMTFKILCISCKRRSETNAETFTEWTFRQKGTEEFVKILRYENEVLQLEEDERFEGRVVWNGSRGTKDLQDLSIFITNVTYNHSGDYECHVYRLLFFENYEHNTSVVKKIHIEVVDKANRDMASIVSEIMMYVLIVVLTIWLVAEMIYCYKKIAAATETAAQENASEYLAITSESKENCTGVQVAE

Row | pIC50 | Compound
1 | 6.59 | CC1(C)C2CCC1(C)[C@H](Oc1cc3nnc(NS(C)(=O)=O)n3cc1C1CC1)C2 (stereo in doubt) [Example 31, N-(6-cyclopropyl-7-(((1S,2R,4R)-1,7,7-trimethylbicyclo-[2.2.1]heptan-2-yl)oxy)-[1,2,4]triazolo[4,3-a]pyridin-3-yl)methanesulfonamide]
2 | 6.59 | CC1(C)C2CC[C@]1(C)[C@H](Oc1cc3nnc(NS(C)(=O)=O)n3cc1C1CC1)C2 (stereo in doubt) [Example 86]
3 | 7.04 | CS(=O)(=O)Nc1nnc2cc(OCC3CCCCC3)c(Br)cn12 [Example 6]
4 | 7.19 | C=Cc1cn2c(NS(C)(=O)=O)nnc2cc1OCC1(C)CCCCC1 [Example 7, N-(7-((1-methylcyclohexyl)methoxy)-6-vinyl-[1,2,4]-triazolo[4,3-a]pyridin-3-yl)methanesulfonamide]
5 | 7.29 | C=C(C)c1cn2c(NS(C)(=O)=O)nnc2cc1OCC12CC3CC(CC(C3)C1)C2 [Example 8, N-(7-(adamantan-1-ylmethoxy)-6-(prop-1-en-2-yl)-[1,2,4]-triazolo[4,3-a]pyridin-3-yl)methanesulfonamide]
6 | 7.65 | CS(=O)(=O)Nc1nnc2cc(OC[C@H]3CC[C@H](C(F)(F)F)CC3)c(C3CC3)cn12 [Example 13, N-(6-cyclopropyl-7-(((trans)-4-(trifluoromethyl)cyclohexyl)-methoxy)-[1,2,4]triazolo[4,3-a]pyridin-3-yl)methanesulfonamide]
7 | 7.85 | CC1(COc2cc3nnc(NS(C)(=O)=O)n3cc2C2CC2)CCCCC1 [Example 14, N-(6-cyclopropyl-7-((1-methylcyclohexyl)methoxy)-[1,2,4]-triazolo[4,3-a]pyridin-3-yl)methanesulfonamide]
8 | 6.86 | CCc1cn2c(NS(=O)(=O)N3CC(F)C3)nnc2cc1OCC12CC3CC(CC(C3)C1)C2 [Example 15, N-(7-((3r,5r,7r)-adamantan-1-ylmethoxy)-6-ethyl-[1,2,4]triazolo[4,3-a]pyridin-3-yl)-3-fluoroazetidine-1-sulfonamide]
9 | 7.66 | O=S(=O)(Nc1nnc2cc(OCC3CCC4(CC3)CC4)c(C3CC3)cn12)C1CC1 [Example 16, N-(6-cyclopropyl-7-(spiro[2.5]octan-6-ylmethoxy)-[1,2,4]triazolo[4,3-a]pyridin-3-yl)cyclopropanesulfonamide]
10 | 8.37 | CCS(=O)(=O)Nc1nnc2cc(OCC34CC5CC(CC(C5)C3)C4)c(C3CC3)cn12 [Example 17, N-(7-((3r,5r,7r)-adamantan-1-ylmethoxy)-6-cyclopropyl-[1,2,4]triazolo[4,3-a]pyridin-3-yl)ethanesulfonamide]
11 | 8.14 | CC1(S(=O)(=O)Nc2nnc3cc(OCC45CC6CC(CC(C6)C4)C5)c(C4CC4)cn23)CC1 [Example 19, N-(7-((3r,5r,7r)-adamantan-1-ylmethoxy)-6-cyclopropyl-[1,2,4]triazolo[4,3-a]pyridin-3-yl)-1-methylcyclopropane-1-sulfonamide]
12 | 8.07 | CS(=O)(=O)Nc1nnc2cc(OCCC34CC5CC(CC(C5)C3)C4)c(C3CC3)cn12 [Example 21]
13 | 8.13 | O=S(=O)(Nc1nnc2cc(OCCC34CC5CC(CC(C5)C3)C4)c(C3CC3)cn12)C1CC1 [Example 22]
14 | 7.18 | O=S(=O)(Nc1nnc2cc(OC3C4CC5CC(C4)CC3C5)c(C3CC3)cn12)C1CC1 (stereo not drawn) [Example 24, N-(7-(adamantan-2-yloxy)-6-cyclopropyl-[1,2,4]triazolo-[4,3-a]pyridin-3-yl)cyclopropanesulfonamide]
15 | 8.28 | CS(=O)(=O)Nc1nnc2cc(OCC3CC4C5CCC(C5)C4C3)c(C3CC3)cn12 (stereo not drawn) [Example 25]
16 | 8.59 | CC1(C)[C@H]2CC[C@H](COc3cc4nnc(NS(C)(=O)=O)n4cc3C3CC3)[C@@H]1C2 [Example 28, N-(6-cyclopropyl-7-(((1S,2S,5S)-6,6-dimethylbicyclo[3.1.1]heptan-2-yl)methoxy)-[1,2,4]triazolo[4,3-a]pyridin-3-yl)methanesulfonamide]
17 | 8.17 | CC1(C)[C@H]2CC[C@H](COc3cc4nnc(NS(=O)(=O)N5CCC5)n4cc3C3CC3)[C@@H]1C2 [Example 30]
18 | 7.06 | CS(=O)(=O)Nc1nnc2cc(OC[C@H]3CC[C@H](C)CC3)c(Br)cn12 [Example 32]
19 | 7.74 | CS(=O)(=O)Nc1nnc2cc(OC[C@H]3CC[C@H](C)CC3)c(C3CC3)cn12 [Example 33]
20 | 7.29 | O=S(=O)(Nc1nnc2cc(OC3CCC4(CCCCC4)CC3)c(C3CC3)cn12)C1CC1 [Example 35, N-(6-cyclopropyl-7-(spiro[5.5]undecan-3-yloxy)-[1,2,4]triazolo-[4,3-a]pyridin-3-yl)cyclopropanesulfonamide]
21 | 7.34 | CS(=O)(=O)Nc1nnc2cc(OCC3(C(F)(F)F)CCCC3)c(C3CC3)cn12 [Example 37]
22 | 8.17 | O=S(=O)(Nc1nnc2cc(COc3ccc(Cl)c(Cl)c3)c(C3CC3)cn12)C1CC1 [Example 39]
23 | 7.72 | O=S(=O)(Nc1nnc2cc(COc3ccc(Cl)c(Cl)c3)c(C3CC3)cn12)N1CCC1 [Example 41, N-(6-cyclopropyl-7-((3,4-dichlorophenoxy)methyl)-[1,2,4]triazolo[4,3-a]pyridin-3-yl)azetidine-1-sulfonamide]
24 | 8.55 | O=S(=O)(Nc1nnc2cc(COc3cc(Cl)cc(OC(F)(F)F)c3)c(C3CC3)cn12)C1CC1 [Example 42, N-(7-((3-chloro-5-(trifluoromethoxy)phenoxy)methyl)-6-cyclopropyl-[1,2,4]triazolo[4,3-a]pyridin-3-yl)cyclopropanesulfonamide]
25 | 8.60 | CS(=O)(=O)Nc1nnc2cc(COc3cc(Cl)cc(OC(F)(F)F)c3)c(C3CC3)cn12 [Example 43, N-(7-((3-chloro-5-(trifluoromethoxy)phenoxy)methyl)-6-cyclopropyl-[1,2,4]triazolo[4,3-a]pyridin-3-yl)methanesulfonamide]
26 | 8.14 | Cc1cc(Cl)cc(OCc2cc3nnc(NS(C)(=O)=O)n3cc2C2CC2)c1 [Example 47, N-(7-((3-chloro-5-methylphenoxy)methyl)-6-cyclopropyl-[1,2,4]triazolo[4,3-a]pyridin-3-yl)methanesulfonamide]
27 | 8.20 | Cc1cc(Cl)cc(OCc2cc3nnc(NS(=O)(=O)C4CC4)n3cc2C2CC2)c1 [Example 48, N-(7-((3-chloro-5-methylphenoxy)methyl)-6-cyclopropyl-[1,2,4]triazolo[4,3-a]pyridin-3-yl)cyclopropanesulfonamide]
28 | 8.40 | CC1(S(=O)(=O)Nc2nnc3cc(COc4cc(Cl)cc(OC(F)(F)F)c4)c(C4CC4)cn23)CC1 [Example 49, N-(7-((3-chloro-5-(trifluoromethoxy)phenoxy)methyl)-6-cyclopropyl-[1,2,4]triazolo[4,3-a]pyridin-3-yl)-1-methylcyclopropane-1-sulfonamide]
29 | 8.31 | CC1(S(=O)(=O)Nc2nnc3cc(COc4cc(Cl)cc(Cl)c4)c(C4CC4)cn23)CC1 [Example 50, N-(6-cyclopropyl-7-((3,5-dichlorophenoxy)methyl)-[1,2,4]-triazolo[4,3-a]pyridin-3-yl)-1-methylcyclopropane-1-sulfonamide]
30 | 7.17 | CC1(COc2cc3nnc(NS(=O)(=O)C4CC4)n3cc2C2CC2)CCC(F)(F)CC1 [Example 53, N-(6-cyclopropyl-7-((4,4-difluoro-1-methylcyclohexyl)methoxy)-[1,2,4]triazolo[4,3-a]pyridin-3-yl)cyclopropanesulfonamide]

From patent US9550775B2, “Substituted triazolopyridines and methods of use thereof” (GENENTECH, INC., priority 2013, dated 2017)
